Key:
Assay in all cases: relative viability (nuclei count vs DMSO), 5 days (fraction); higher = more cells survive
[1] = compound: CCC1=CN=CN=C1N2CCN(CC2)CC3=NC4=C(N3)C=C(C=C4)C(F)(F)F + Cc1nc(Nc2ncc(C(=O)Nc3c(C)cccc3Cl)s2)cc(N2CCN(CCO)CC2)n1 [Dasatinib] (partner 0.075 µM)
How it was run: (§1)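 After 5 days of treatment, lung cancer cells in 1536-well plates were fixed and stained in a single step (final 0.05% Triton X-100, 1% formaldehyde, 1 ug/ml Hoechst) and their nuclei counted on 4× images. Treatment had been applied by pin tool the day after seeding as one drug alone or as a fixed anchor-drug dose with five library-drug doses (not always all listed) in √10 steps. Relative viability is the nuclei count of treated wells divided by that of vehicle wells, and values are medians of duplicate plates.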

[2] = compound: CCC1=CN=CN=C1N2CCN(CC2)CC3=NC4=C(N3)C=C(C=C4)C(F)(F)F + Nc1ncn([C@H]2C[C@H](O)[C@@H](CO)O2)c(=O)n1 [Decitabine] (partner 2 µM)
How it was run: as §1

[3] = compound: CCn1c(-c2nonc2N)nc2cnc(Oc3cccc(NC(=O)c4ccc(OCCN5CCOCC5)cc4)c3)cc21 + CC1(C)CCC(c2ccc(Cl)cc2)=C(CN2CCN(c3ccc(C(=O)NS(=O)(=O)c4ccc(N[C@H](CCN5CCOCC5)CSc5ccccc5)c(S(=O)(=O)C(F)(F)F)c4)cc3)CC2)C1 [Navitoclax] (partner 0.5 µM)
How it was run: as §1

Mirin + Pictilisib = compound: N=C1NC(=O)/C(=C/c2ccc(O)cc2)S1 [Mirin] + CS(=O)(=O)N1CCN(Cc2cc3nc(-c4cccc5[nH]ncc45)nc(N4CCOCC4)c3s2)CC1 [Pictilisib] (partner 1 µM)
How it was run: as §1

**Q.** How did the relative viability ([1]; first compound 0.04 µM) turn out when UMC-11 was run?
**A.** The relative viability was 0.531.

**Q.** What about the relative viability ([1]; first compound 0.1265 µM) of the same cell line?
**A.** Its relative viability is 0.436.

**Q.** And the relative viability ([1]; first compound 0.4 µM)?
**A.** The relative viability was 0.42.

**Q.** What about the relative viability ([1]; first compound 1.265 µM) of the same cell line?
**A.** The relative viability was 0.398.

**Q.** And the relative viability ([1]; first compound 4 µM)?
**A.** The relative viability was 0.492.

**Q.** What about the relative viability ([2]; first compound 0.04 µM) of the same cell line?
**A.** The relative viability was 0.622.

**Q.** What about the relative viability ([2]; first compound 0.1265 µM) of the same cell line?
**A.** Its relative viability is 0.562.

**Q.** What about the relative viability ([2]; first compound 0.4 µM) of the same cell line?
**A.** Its relative viability is 0.602.

**Q.** And the relative viability ([2]; first compound 1.265 µM)?
**A.** The relative viability was 0.379.

**Q.** What about the relative viability ([2]; first compound 4 µM) of the same cell line?
**A.** The relative viability was 0.351.

**Q.** And the relative viability ([3]; first compound 0.04 µM)?
**A.** Its relative viability is 0.349.

**Q.** And the relative viability ([3]; first compound 0.1265 µM)?
**A.** The relative viability was 0.314.

**Q.** What about the relative viability ([3]; first compound 0.4 µM) of the same cell line?
**A.** The relative viability was 0.313.

**Q.** What about the relative viability ([3]; first compound 1.265 µM) of the same cell line?
**A.** The relative viability was 0.151.

**Q.** What about the relative viability ([3]; first compound 4 µM) of the same cell line?
**A.** Its relative viability is 0.144.

**Q.** What about the relative viability (Mirin + Pictilisib; first compound 0.25 µM) of the same cell line?
**A.** The relative viability was 0.798.

**Q.** And the relative viability (Mirin + Pictilisib; first compound 0.7906 µM)?
**A.** The relative viability was 0.164.

**Q.** And the relative viability (Mirin + Pictilisib; first compound 2.5 µM)?
**A.** Its relative viability is 0.849.

**Q.** And the relative viability (Mirin + Pictilisib; first compound 7.906 µM)?
**A.** The relative viability was 0.509.

**Q.** And the relative viability (Mirin + Pictilisib; first compound 25 µM)?
**A.** The relative viability was 0.4.
